Like-named read-outs stand apart in the source and are kept apart here.
Key:
FGFR1 active kinase = FGFR1 active kinase (Homo sapiens, UniProt P11362); test: FGFR Kinase assay - Caliper; assay type: biochemical; for FGFR Kinase assay - Caliper, IC50: 408 µM ATP
[1] = target: T1, His6-tagged FGFR kinase domain (Homo sapiens, UniProt P11362, C488A/C584S); test: FGFR Kinase assay - Elisa; assay type: biochemical
T1 construct: FGFR kinase domain (amino acids 458-765, C488A, C584S) N-terminally fused to a His6-tag and TEV cleavage site; His6-tag plus linker and TEV cleavage site (printed as X1); made in house
T1 sequence (P11362 458-765 C488A/C584S): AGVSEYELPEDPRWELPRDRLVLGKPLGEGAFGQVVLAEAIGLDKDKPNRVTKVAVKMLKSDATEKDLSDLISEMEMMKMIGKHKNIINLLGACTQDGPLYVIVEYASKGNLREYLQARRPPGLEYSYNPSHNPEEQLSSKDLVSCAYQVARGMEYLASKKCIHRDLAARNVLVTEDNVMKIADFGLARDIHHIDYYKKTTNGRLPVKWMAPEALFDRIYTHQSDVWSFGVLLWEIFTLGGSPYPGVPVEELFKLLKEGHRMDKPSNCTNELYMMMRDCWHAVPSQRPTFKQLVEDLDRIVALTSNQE
Method: To determine inhibition of FGFR activity, kinase assays were conducted using ELISA (Enzyme-Linked Immunosorbent Assay) technology.
Kinase activity assays were performed in 384-well polypropylene plates (Matrix, Catalogue No. 4311. Matrix are part of Thermo Fisher Scientific, 22 Friars Drive, Hudson, N.H. 03051, USA) with a total volume of 40 μl in each well. Each well was coated with 2 μg of polyEAY substrate (Sigma, Catalogue No. P3899) at 4° C. overnight. The plates were then washed once with 100 μl PBS and once with 100 μl 50 mM HEPES (pH 7.4) prior to the addition of the kinase assay reagents. Reactions contained His6-tagged FGFR kinase domain (FGFR kinase domain (amino acids 458-765, C488A, C584S) N-terminally fused to a His6-tag and TEV cleavage site encoded by the following sequence; [[…]]. The final alanine denotes the start of the FGFR protein sequence. The resultant protein was expressed and purified based on Mohammadi et al, Cell Vol 86, 577-587 (1996). Each kinase reaction contained 0.1 ng His6-tagged FGFR kinase domain, 50 mM HEPES (pH 7.4), 0.1 mM Na3VO4, 0.1 mM DTT, 0.05% (v/v) Triton X100, 20 mM MgCl2, 160 μM ATP. Various concentrations of test compounds were each added in 5% (v/v) DMSO to yield a final assay DMSO concentration of 1.25% (v/v). The kinase reactions were incubated at room temperature for 45 minutes and stopped by washing the plate three times with 100 μl PBS plus 0.05% Tween. 40 μl of a one in 10000 dilution of 4G10-HRP antibody (Upstate Biotechnology, UBI 16-105. Upstate are part of Millipore Corporation, 290 Concord Road, Billerca Mass. 01821 USA) made up in 0.5% (w/v) BSA/PBS was then added to each well and the plates incubated at room temperature for one hour. Following this, the plates were then washed repeatedly with 100 μl PBS plus 0.05% Tween to remove all traces of the antibody solution. 40 μl of 50 μg/ml 3,3′,5,5′-Tetramethylbenzidine (Sigma, Catalogue No. T2885), 0.05M phosphate-citrate buffer, containing 0.03% sodium perborate was added to each well and the plates incubated at room temperature for twelve minutes. The colour reaction was stopped by the addition of 20 μl 2M H2SO4 and the plates read at 450 nm on a Spectrafluor Plus (Tecan Trading AG, Switzerland). In the assay, compounds were tested at a range of concentrations.
Percentage inhibition at 1 uM, as expressed herein, is a calculated value based on the curve fit that was generated experimentally. From the fitted curve plot, the effect of compound at a concentration of 1 uM was calculated as a percentage inhibition. The IC50 value is the concentration of test compound that inhibits 50% of FGFR kinase activity.

[2] = FGFR1 […], 408 uM ATP, mean of n as printed, read-out: FGFR Kinase assay - Caliper, IC50
[3] = FGFR inhibition test, Caliper, read-out: Activity class (FGFR Kinase assay - Caliper)
[4] = FGFR inhibition test, Elisa, read-out: Activity class (FGFR Kinase assay - Elisa)

FGFR1 active kinase, sequence (P11362 22-822): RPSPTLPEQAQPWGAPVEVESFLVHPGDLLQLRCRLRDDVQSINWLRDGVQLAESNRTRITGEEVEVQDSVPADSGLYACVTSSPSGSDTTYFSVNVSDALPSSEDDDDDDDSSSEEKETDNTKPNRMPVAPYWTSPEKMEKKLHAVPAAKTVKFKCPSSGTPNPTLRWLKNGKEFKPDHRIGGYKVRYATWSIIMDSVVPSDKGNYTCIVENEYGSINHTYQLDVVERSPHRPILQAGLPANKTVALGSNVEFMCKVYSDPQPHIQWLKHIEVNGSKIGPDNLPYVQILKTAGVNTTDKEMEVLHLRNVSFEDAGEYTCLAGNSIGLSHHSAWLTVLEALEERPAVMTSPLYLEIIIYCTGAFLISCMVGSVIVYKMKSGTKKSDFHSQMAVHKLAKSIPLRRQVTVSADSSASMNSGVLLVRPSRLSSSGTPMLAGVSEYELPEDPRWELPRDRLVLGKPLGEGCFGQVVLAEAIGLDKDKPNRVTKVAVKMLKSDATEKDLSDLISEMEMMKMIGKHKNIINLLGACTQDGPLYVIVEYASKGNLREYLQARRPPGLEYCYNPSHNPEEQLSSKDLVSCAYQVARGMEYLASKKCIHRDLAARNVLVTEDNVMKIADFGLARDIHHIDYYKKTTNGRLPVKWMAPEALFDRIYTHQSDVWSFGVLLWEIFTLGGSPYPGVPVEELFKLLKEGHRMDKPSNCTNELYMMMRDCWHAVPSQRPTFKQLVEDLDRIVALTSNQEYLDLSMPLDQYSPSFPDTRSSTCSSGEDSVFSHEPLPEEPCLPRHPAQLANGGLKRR

Compound | IC50 (FGFR1 active kinase; [2]) | IC50 (FGFR1 active kinase; [3]) | IC50 [1, 4] | IC50 (FGFR1 active kinase; footnote example, read-out: FGFR Kinase assay - Caliper, value in table footnote) | IC50 ([1]; footnote example, read-out: FGFR Kinase assay - Elisa, value in table footnote)
COc1cccc(CCc2cc(NC(=O)c3ccc(C)nc3)[nH]n2)c1 [Example 13, N-[5-[2-(3-Methoxyphenyl)ethyl]-2H-pyrazol-3-yl]-6-methyl-pyridine-3-carboxamide] | 950 nM | 300 to 1000 nM | 300 to 1000 nM |  | 
COc1cccc(CCc2cc(NC(=O)c3ccc(OC)nc3)[nH]n2)c1 [Example 14, 6-Methoxy-N-[5-[2-(3-methoxyphenyl)ethyl]-2H-pyrazol-3-yl]pyridine-3-carboxamide] | 610 nM | 300 to 1000 nM | 300 to 1000 nM | 612 nM | 732 nM
COc1cccc(CCc2cc(NC(=O)c3cnc(C)cn3)[nH]n2)c1 [Example 16, N-[5-[2-(3-Methoxyphenyl)ethyl]-2H-pyrazol-3-yl]-5-methyl-pyrazine-2-carboxamide] | 750 nM | 300 to 1000 nM | 300 to 1000 nM |  | 
C#CCNc1ccc(C(=O)Nc2cc(CCc3cccc(OC)c3)n[nH]2)nc1 [Example 17, N-[5-[2-(3-Methoxyphenyl)ethyl]-2H-pyrazol-3-yl]-5-(prop-2-ynylamino)pyridine-2-carboxamide] | 660 nM | 300 to 1000 nM | 300 to 1000 nM |  | 

Stronger by IC50 (FGFR1 active kinase; [2]), values ahead:

IC50 (FGFR1 active kinase; [2]) | IC50 (FGFR1 active kinase; [3]) | IC50 [1, 4] | IC50 (FGFR1 active kinase; footnote example, read-out: FGFR Kinase assay - Caliper, value in table footnote) | IC50 ([1]; footnote example, read-out: FGFR Kinase assay - Elisa, value in table footnote) | Compound
58 nM | < 300 nM | < 300 nM |  |  | COCCOc1cccc(CCc2cc(NC(=O)c3ccc(N4CCN(C)CC4)cc3)[nH]n2)c1 [Example 6, N-[5-[2-[3-(2-methoxyethoxy)phenyl]ethyl]-2H-pyrazol-3-yl]-4-(4-methylpiperazin-1-yl)benzamide]
110 nM | < 300 nM | < 300 nM |  |  | COc1cccc(CCc2cc(NC(=O)c3ccc(S(C)(=O)=O)cc3)[nH]n2)c1 [Example 15, N-[5-[2-(3-Methoxyphenyl)ethyl]-2H-pyrazol-3-yl]-4-methylsulfonyl-benzamide]
400 nM | 300 to 1000 nM | < 300 nM |  |  | COc1cccc(CCc2cc(NC(=O)c3ccc(NC(C)=O)cc3)[nH]n2)c1 [Example 19, 4-Acetamido-N-[5-[2-(3-methoxyphenyl)ethyl]-2H-pyrazol-3-yl]benzamide]
46 nM | < 300 nM | < 300 nM |  |  | COc1cc(COc2cc(NC(=O)c3cnc(N4CCN(C)CC4)cn3)[nH]n2)cc(OC)c1 [Example 20, N-[5-[(3,5-Dimethoxyphenyl)methoxy]-2H-pyrazol-3-yl]-5-(4-methylpiperazin-1-yl)pyrazine-2-carboxamide]

From US10301267B2, “Compounds” (AstraZeneca AB, priority 2006, dated 2019)
